Assay results from paper PMC12968138, “CreSAMT1 is mainly responsible for the biosynthesis of characteristic aroma compound dimethyl anthranilate in Citrus reticulata ‘Chachiensis’” (Horticulture Research, 2025).

Key:
CreSAMT2 = tested on: T1, CreSAMT2; assay: GC-MS of methyl ester product, Michaelis-Menten fit; format: biochemical, Citrus reticulata; settings: co-substrate SAM, Tris-HCl, KCl, pH 7.0, 25 °C
T1 construct: His-tagged (pET6xHN), E. coli BL21(DE3), Ni-IDA purified; tag cleavage not mentioned
Source text: GC-MS of methyl ester product, Michaelis-Menten fit on CreSAMT2

CreSAMT1 = tested on: T2, CreSAMT1; assay: as above; format: biochemical, Citrus reticulata; settings: co-substrate SAM, Tris-HCl, KCl, pH 7.0, 35 °C
T2 construct: His-tagged (pET6xHN), E. coli BL21(DE3), Ni-IDA purified; tag cleavage not mentioned
Source text: GC-MS of methyl ester product, Michaelis-Menten fit on CreSAMT1

Compound	Km (CreSAMT2)	Km (CreSAMT1)	Km (CreSAMT2; sodium salt used)	Km (CreSAMT1; sodium salt used)
O=C(O)c1ccccc1 [BA, benzoic acid]	25 ± 6.89 µM	61.9 ± 30.7 µM		
O=C(O)c1ccccc1O [SA, salicylic acid]	53 ± 11.2 µM	101 ± 33.5 µM		
CNc1ccccc1C(=O)O [NMA, N-methyl-2-aminobenzoic acid]	128 ± 58.9 µM	164 ± 98.4 µM		
Nc1ccccc1C(=O)O [AA, anthranilate]			18 ± 1.9 µM	4.82 ± 1.53 µM
